Measurements as given in patent publication US8163509B2, “Biological markers predictive of anti-cancer response to insulin-like growth factor-1 receptor kinase inhibitors” (The Regents of the University of Colorado, A Body Corporate, priority 2008, dated 2012).
Like-named read-outs stand apart in the source and are kept apart here.

Legend:
[1] = tested on: HT29 CRC cell line; assay: SRB proliferation assay, 72 h; assay type: cell-based, human
Procedure: FIG. 17: Results of cell proliferation assay on the panel of 27 CRC cell lines. Cell proliferation was evaluated by SRB following exposure to OSI-906 for 72 hours. Cells were plated at an optimized density in 96-well plates, incubated overnight at 37° C., and then exposed to a serial dilution of OSI-906. After 72 hours incubation, cells were fixed with trichloroacetic acid and an SRB was performed as described in materials and methods.
(§1) Cell Lines and Culture. […] human colon cancer cell lines, were obtained from American Type Culture Collection (Manassas, Va.). Cells were grown in RPMI medium supplemented with 10% fetal bovine serum, 1% non-essential amino acids, 1% penicillin/streptomycin and were maintained at 37° C. in an incubator under an atmosphere containing 5% CO2. The cells were routinely screened for the presence of mycoplasma (MycoAlert, Cambrex Bio Science, Baltimore, Md.) and were exposed to PQIP when they reached approximately 70% confluence.
Cytotoxicity and Combination Effects: HT29, HCT116, RKO, and LS513 CRC cell lines were exposed to 0-10 nM SN-38 (7-Ethyl-10-hydroxy-camptothecin), 0-10 μM Oxaliplatin, or 0-50 μM 5-Fluorouracil (5-FU) for 72 hours. HT29, HCT116, RKO, and LS513 CRC cell lines were exposed to PQIP in combination with SN-38, Oxaliplatin or 5-FU. In all combinations, cells were seeded in 96-well flat bottomed plates and left overnight. PQIP and chemotherapy were both added for 72 hours. The results of the combinations were analyzed by the Chou and Talalay method with Calcusyn (Biosoft, Ferguson, Mo.).
(§2) The CRC cell lines were treated with a range of concentrations of PQIP (from 0.05-5 μM) for 72 hours.
To characterize the potential functionality that the selected genes may play in the sensitivity or resistance to PQIP, resistant and sensitive CRC cell lines were stably transfected with specific shRNA, treated with increasing concentrations of PQIP and proliferation assays performed to observe, if when manipulated, these genes alter responsiveness (i.e. the S or R phenotype). Two resistant cell lines HCT116 and SW480 were transfected with metallothionein 2A (MT-2A) shRNA and were exposed to increasing concentrations of PQIP. […] Both of these transfected cell lines were assayed for proliferation as described above. […] HT29 tumor cells were transfected with shRNA for ALDH1A1, which is up regulated in the PQIP sensitive cell lines.
Combination treatment of PQIP with Chemotherapy in Colon Cancer Cell Lines: IGF1R is overexpressed in CRC and has been associated with resistance to chemotherapy. Therefore, we investigated the effect of PQIP in combination with standard chemotherapy for CRC. Four CRC cell lines including, two PQIP sensitive and two PQIP resistant, were chosen for combinations. HT29 and LS513 CRC cell lines were classified as sensitive, with IC50's around 0.3 μmol/L. HCT116 and RKO CRC cell lines were classified as resistant, with IC50>5 μmol/L. Concentrations were chosen based on single agent proliferation curves for each compound. Cells were exposed to PQIP and chemotherapy (SN38, oxaliplatin, or 5-Fluorouracil) concurrently for 72 h and combinations were assessed using the SRB assay. […] It thus appears that biomarkers which predict tumor cell sensitivity will also indicate which cells will respond in a synergistic manner to an IGF-1R kinase inhibitor (e.g. PQIP) and chemotherapy (i.e. SN38, oxaliplatin, or 5-Fluorouracil).
Cell Lines and Culture: Twenty-seven human colon cancer cell lines, were obtained from American Type Culture Collection (Manassas, Va.). The GEO cells were a generous gift from Dr. Fortunato Ciardiello (Cattedra di Oncologia Medica, Dipartimento Medico-Chirurgico di Internistica Clinica e Sperimentale “F Magrassi e A Lanzara,” Seconda Università degli Studi di Napoli, Naples). […]

[2] = tested on: human tumor explants; assay: In vivo growth study, primary CRC xenografts (human tumor explants); design: species or system athymic nude mice; conditions: OSI-906 40 mg/kg, 28 days
Procedure: In vivo Growth Studies: Five to six-week-old female athymic nude mice (Harlan Sprague Dawley) were used. The research protocol was approved by the University of Colorado Denver, Animal Care and Use Committee. Mice were caged in groups of five and kept on 12-h light/dark cycle and provided with sterilized food and water ad libitum. All of the studies were conducted in accordance with the NIH guidelines for the care and use of laboratory animals, and animals were housed in a facility accredited by the American Association for Accreditation of Laboratory Animal Care. Animals were allowed to acclimate for at least 7 days before any handling.
The primary CRC xenografts were generated according to published methodology (Rubio-Viqueira B, et al. Clin Cancer Res 2006; 12(15):4652-61.). Briefly, surgical specimens of patients operated at the University of Colorado Hospital were reimplanted s.c. to 5 mice for each patient. […] Mice were monitored daily for signs of toxicity and were weighed twice weekly. Tumor size was evaluated two times per week by caliper measurements using the following formula: tumor volume=[length×width^2][…]. Relative tumor growth index was calculated by relative tumor growth of treated mice divided by relative tumor growth of control mice since the initiation of therapy (T/C). […]

[3] = tested on: Colo320 CRC cell line; assay: SRB proliferation assay, 72 h; assay type: cell-based; conditions: Homo sapiens, COLO 320, 0.05-5 μM, read-out: IC50, growth inhibition by PQIP (SRB)
Procedure: as §1, §2

| Structure (SMILES) | IC50 ([1]; Homo sapiens, HT-29, 72 h, HT29, 72 hours, read-out: IC50, proliferation, OSI-906 (SRB)) [nM] | IC50 ([1]; Homo sapiens, HT-29, HT29, read-out: S/I/R to OSI-906) [nM] | TGI (relative tumor growth index, T/C) ([2]; three explants predicted as resistant) | TGI (relative tumor growth index, T/C) ([2]; two explants predicted as sensitive) | IC50 ([1]; HT29, 72 hours, 0.05-5 μM, read-out: IC50, growth inhibition by PQIP (SRB)) [nM] | combination index (CI) values, PQIP and chemotherapy ([1]; HT29, PQIP with SN38, oxaliplatin or 5-Fluorouracil concurrently 72 h, nearly all CI values, Chou and Talalay) | shift in sensitivity to PQIP after shRNA knockdown ([1]; HT29 with ALDH1A1 shRNA knockdown) | IC50 ([1]; Homo sapiens, HT-29, 72 h, HT29, 72 hours, 0.05-5 μM, read-out: IC50, growth inhibition by PQIP (SRB)) [nM] | IC50 [3] [nM] |
| --- | --- | --- | --- | --- | --- | --- | --- | --- | --- |
| C[C@]1(O)C[C@@H](c2nc(-c3ccc4ccc(-c5ccccc5)nc4c3)c3c(N)nccn32)C1 [OSI-906, cis-3-[8-amino-1-(2-phenyl-quinolin-7-yl)-imidazo[1,5-a]pyrazin-3-yl]-1-methyl-cyclobutanol] | ≤ 1500 | ≤ 1500 | 130-200% | 21-28% | – | – | – | – | – |
| CN1CCN([C@H]2C[C@@H](c3nc(-c4ccc5ccc(-c6ccccc6)nc5c4)c4c(N)nccn43)C2)CC1 [PQIP, cis-3-[3-(4-Methyl-piperazin-1-yl)-cyclobutyl]1-(2-phenyl-quinolin-7-yl)-imidazo[1,5-a]pyrazin-8-ylamine] | – | – | – | – | ~300 | 0.2-1.0 | no left shift in sensitivity | < 500 | < 500 |
